Eight compounds from US4749712A, “Antiinflammatory and/or analgesic 5-alkylthiophenes” (E. I. Du Pont de Nemours and Company, priority 1984, dated 1988) can be followed below.

The structures appear in SMILES notation. Read-outs that look alike come from different tables or passages of the source.

Assay [1] concerns adjuvant-induced arthritis in rats. Kind of assay: Established Adjuvant-Induced Arthritis in Rats. The format is in vivo, rat (male Charles River Lewis). As to conditions: for ED50: 24 h, read-out: Adjuvant Arthritis ED50 (effective dose for 50% decrease from control paw volume).
Assay [2] relates to phenylquinone writhing in mice. Kind of assay: Phenylquinone Writhing Test (analgesic activity). The assay is classed as in vivo, mouse (female white mice). As to conditions: read-out: Phenylquinone Writhing (PQW) ED50 (effective analgesic dose for 50% of the mice). As to the method:
Phenylquinone Writhing Test
A test compound suspended in 1% methylcellulose was given orally to fasted (17-21 hours) female white mice, 5-20 animals per double blind test. Aqueous (0.01% phenyl-p-benzoquinone) phenylquinone, 0.20 ml per mouse, was injected intraperitoneally 6 minutes before observations were begun.
Background: An intraperitoneal irritant provokes the stretching counted in writhing tests.

Setting [3] is: mouse, oral, phenylquinone i.p. 6 minutes before 10 minutes observation.
Where [4] appears, read: rat, oral gavage, 7 daily doses, paw volume one day after last dose.

The term ED50 denotes the dose at which the effect has come halfway, by size or by number of responders. With `CC(=O)Oc1ccccc1C(=O)O` [Aspirin, reference compound], the ED50 in assay [1] (Rattus norvegicus, po) amounted to 305 mg/kg.

For the compound `COc1ccc(-c2cc(C3CCCCC3)sc2-c2ccc(OC)cc2)cc1` [Example 3, 5-Cyclohexyl-2,3-bis(4-methoxyphenyl)thiophene], the “percent reduction in paw volume at the indicated dose” value in assay [1] (rat, oral gavage, 7 daily doses, at 45 mg/kg) came to 34%. The ED50 in assay [2] (setting [3]) came to 47 mg/kg.

With `COc1ccc(-c2cc(C)sc2-c2ccc(OC)cc2)cc1` [Example 1, 5-Methyl-2,3-bis(4-methoxyphenyl)thiophene], the ED50 came out at 60 mg/kg in assay [1] (setting [4]) and 78 mg/kg in assay [2] (setting [3]).

On to `CC(C)Cc1ccc(C(C)C(=O)O)cc1` (stereo not drawn) [Ibuprofen, reference compound], for which the figures for the ED50 in assay [1] (setting [4]) and in assay [2] (setting [3]) were 100 mg/kg and 10 mg/kg, respectively.

As to `CCCCC1C(=O)N(c2ccccc2)N(c2ccccc2)C1=O` [Phenylbutazone, reference compound], the ED50 in assay [1] (setting [4]) was 10 mg/kg; in assay [2] (setting [3]) it was 80 mg/kg.

As to `CCC(C)c1cc(-c2ccc(OC)cc2)c(-c2ccc(OC)cc2)s1` (stereo not drawn) [Example 2, 5-(1-Methylpropyl)-2,3-bis(4-methoxyphenyl)thiophene], the ED50 in assay [1] (setting [4]) came out at 29 mg/kg; in assay [2] (setting [3]) it was 5.5 mg/kg.

On to `COc1ccc(-c2cc(C(C)(C)C)sc2-c2ccc(OC)cc2)cc1` [Example 4, 5-(1,1-Dimethylethyl)-2,3-bis(4-methoxyphenyl)thiophene], for which the ED50 in assay [1] (setting [4]) was determined as 36 mg/kg; in assay [2] (setting [3]), 1.4 mg/kg.

For the compound `COc1ccc2c(c1)c(CC(=O)O)c(C)n2C(=O)c1ccc(Cl)cc1` [Indomethacin, reference compound], the ED50 in assay [1] (Rattus norvegicus, po) came to 0.3 mg/kg; in assay [2] (Mus musculus, po) it was 0.35 mg/kg.
